# Source: patent US20090246293A1 (priority 2008, published 2009)
# Like-named read-outs stand apart in the source and are kept apart here.
# Experiments:
# [1] = system: Phytophthora infestans (PHYTIN); assay type: in vivo; conditions: fungicide with Formulation I at 100 ppm
# [2] = system: Pseudoperonospora cubensis (PSPECU); conditions: in vivo
# [3] = system: Plasmopara viticola (PLASVI); assay type: in vivo; conditions: fungicide with Formulation I at 100 ppm
# [4] = system: Pseudoperonospora cubensis; experiment: Drop-band treatment of cucumber leaves, then spray inoculation with zoospores (Examples 1-3); assay type: in vivo
# Experimental: The following examples were carried out on greenhouse and growth chamber experiments on cucumber plants. The cucumber plants were grown from seed in soil-free medium mix (Metro-Mix 360®) and maintained in a glasshouse with supplementary light sources to provide a 16 hour photoperiod at 24-29° C. until the plants had produced 1-2 true leaves. Plants were then trimmed to 1 true leaf, approximately 8 cm across by removing any additional leaves.
# Referring below to Table 1, Dithane M45 and Dithane OS are standard commercial formulations. Isovaleraldehyde loaded onto PergoPak was prepared using the following procedure: a mixture of 1.35 g of PergoPak M (polyurea), 0.15 g of isovaleraldehyde and 8 mL of ether was stirred at room temperature for 10 min. The mixture was then concentrated by rotatory evaporation at room temperature under a slight vacuum to provide a solid that was air dried for an hour at room temperature and then bottled. All treatments were prepared by adding the appropriate amount of each treatment to distilled water to give the desired concentration of active ingredient. Dithane® M45 suspensions were initially prepared via serial dilution. Mancozeb/isovaleraldehyde solutions were prepared by adding a prepared isovaleraldehyde solution to a prepared mancozeb suspension. All solutions were vortexed and sonicated prior to treatment application to ensure that they were homogenous.
# A sporangial suspension of Pseudoperonospora cubensis was made by collecting leaves with freshly sporulating lesions and washing them in distilled water, which was made up of equal volumes of chilled (4° C.) and tap distilled water (21° C.). The suspension was then left on the lab bench for 2 hours to allow the release of zoospores from the sporangia. After 2 hours the suspension was filtered through filter paper (“Whatman”, 12.5 cm, grade 113V) to remove any remaining sporangia and mycelial fragments. The zoospore concentration was determined and then adjusted to the desired concentration with distilled water.
# For each example described below, an area 5 cm wide by 1 cm deep was initially marked on each cucumber leaf by placing a mark in each corner of the area. This was repeated on four separate plants to give four replicates for each treatment. Ten 15 microlitre drops were then applied to each leaf in two 5 drop bands (1 cm between each drop) and allowed to dry overnight. Subsequently a zoospore suspension of Pseudoperonospora cubensis (30,000 zoospores/mL) was sprayed with a hand-atomiser to the entire leaf until run-off. Plants were placed in a dew room (22° C. and 99% RH) for 24 hours then maintained in a growth room with supplementary light sources to provide a 14 hour photoperiod at 18° C. and 70% RH until disease assessment.
# Assessment of the effectiveness of the treatment was done by visual infection within the banded area. The banded area was evaluated on a percentage scale (with 0% representing no infection and 100% representing infection of the entire area) after 5-7 days.
# [5] = assay type: in vivo; conditions: mancozeb:fluazinam 1:1, mancozeb:dimethomorph 2:1, Formul. I/II at 100 ppm, untreated check 95%
substance,measurement,setting,value
mancozeb,Reduction in percent disease PHYTIN,[1]; Table 18,x (0-20% reduction in percent disease)
same,Reduction in percent disease PHYTIN,[1]; Table 19,xxx (36-50% reduction in percent disease)
same,"effect of Formulation I on the effectiveness of fungicides, PHYTIN",[1]; Table 20,xx (21-35% reduction in percent disease)
same,"effect of Formulation I on the effectiveness of fungicides, PSPECU",[2],xx (key: x: 0-20% reduction in percent disease; xx: 21-35% reduction in percent disease; xxx: 36-50% reduction in percent disease; xxxx: >50% reduction in percent disease)
same,Reduction in percent disease PLASVI,[3]; Table 18,xx (21-35% reduction in percent disease)
same,Reduction in percent disease PLASVI,[3]; Table 19,xx (21-35% reduction in percent disease)
same,"effect of Formulation I on the effectiveness of fungicides, PLASVI",[3]; Table 20,xx (21-35% reduction in percent disease)
same,Percent infection of Pseudoperonospora cubensis on cucumbers,"[4]; mancozeb 10 ppm (Dithane 60 OS) alone, 5 days after application",31%
same,Percent infection of Pseudoperonospora cubensis on cucumbers,"[4]; mancozeb 10 ppm (Dithane M45) alone, 6 days after application",31%
same,Percent infection of Pseudoperonospora cubensis on cucumbers,"[4]; mancozeb 10 ppm (Dithane M45) alone, 7 days after application",30%
same,Percent infection of Pseudoperonospora cubensis on cucumbers,"[4]; mancozeb 50 ppm (Dithane 60 OS) alone, 5 days after application",25%
same,Percent infection of Pseudoperonospora cubensis on cucumbers,"[4]; mancozeb 50 ppm (Dithane M45) alone, 6 days after application",21%
same,Percent infection of Pseudoperonospora cubensis on cucumbers,"[4]; mancozeb 50 ppm (Dithane M45) alone, 7 days after application",11%
same,Percent infection of Pseudoperonospora cubensis on cucumbers,"[4]; mancozeb 100 ppm (Dithane 60 OS) alone, 5 days after application",10%
same,Percent infection of Pseudoperonospora cubensis on cucumbers,"[4]; mancozeb 100 ppm (Dithane M45) alone, 6 days after application",16%
same,Percent infection of Pseudoperonospora cubensis on cucumbers,"[4]; mancozeb 100 ppm (Dithane M45) alone, 7 days after application",6%
same,Percent disease,[5]; 1.6 ppm mancozeb,71%
same,Percent disease,[5]; 3.1 ppm mancozeb,79%
